Values quoted from earlier work, collected in PMC3983394 (Journal of Medicinal Chemistry, 2014).

Columns and labels:
mice [1] = tested on: mice
mice [2] = tested on: mice; remark: listed apart in the source
mice [3] = tested on: mice; remark: listed apart in the source
mice [4] = tested on: mice; remark: listed apart in the source

## CN1CCC[C@H]1c1cccnc1 [nicotine]
Mice [1]
  ED50 tail-flick: 1.3 (0.5–1.8) mg/kg
Mice [2]
  ED50 hot-plate: 0.65 (0.25–0.85) mg/kg
Mice [3]
  ED50 hypothermia: 1.0 (0.6–2.1) mg/kg
Mice [4]
  ED50 spontaneous activity: 0.5 (0.15–0.78) mg/kg
